Measured values: patent US20260085073A1, “PYRAZOLYLCARBOXAMIDE COMPOUNDS AND THEIR USE IN THERAPY” (Hotspot Therapeutics, Inc., priority 2022, published 2026)

The compounds below were run against T1, MALT1 (Homo sapiens, UniProt Q9UDY8) (assay: MALT1 inhibition assay (MALT-1 Fluorogenic Peptide Cleavage Assay, Ac-LRSR-AMC substrate)). Settings: Avi-tagged FL MALT-1, 30 min pre-incubation, 90 min reaction at room temperature, fluorescence intensity.
T1 construct: Avi-tagged FL MALT-1 (Pharmaron, stored at −70° C.); Avi-tag
T1 sequence (Q9UDY8 1-824): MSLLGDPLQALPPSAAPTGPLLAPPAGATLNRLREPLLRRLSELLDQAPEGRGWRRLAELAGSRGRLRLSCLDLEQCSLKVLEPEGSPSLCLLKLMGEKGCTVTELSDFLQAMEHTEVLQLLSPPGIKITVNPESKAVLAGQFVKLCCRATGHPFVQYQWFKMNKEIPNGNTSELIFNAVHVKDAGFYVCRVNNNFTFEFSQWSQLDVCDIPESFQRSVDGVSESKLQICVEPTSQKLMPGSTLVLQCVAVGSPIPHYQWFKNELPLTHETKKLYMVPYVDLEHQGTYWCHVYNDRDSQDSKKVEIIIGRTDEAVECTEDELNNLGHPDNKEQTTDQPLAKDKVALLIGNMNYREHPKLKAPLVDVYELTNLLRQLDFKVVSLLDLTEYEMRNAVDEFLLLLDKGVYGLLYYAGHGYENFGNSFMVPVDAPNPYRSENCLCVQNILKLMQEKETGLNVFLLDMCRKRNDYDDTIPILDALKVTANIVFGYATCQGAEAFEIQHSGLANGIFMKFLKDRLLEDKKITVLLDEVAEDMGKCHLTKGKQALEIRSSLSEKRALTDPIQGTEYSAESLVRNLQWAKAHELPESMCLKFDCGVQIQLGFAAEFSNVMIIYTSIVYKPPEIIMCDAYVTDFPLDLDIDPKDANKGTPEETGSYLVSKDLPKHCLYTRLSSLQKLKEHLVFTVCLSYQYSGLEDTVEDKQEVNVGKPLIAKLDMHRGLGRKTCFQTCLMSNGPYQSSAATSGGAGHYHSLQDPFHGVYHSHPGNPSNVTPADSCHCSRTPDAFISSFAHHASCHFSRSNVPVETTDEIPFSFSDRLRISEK
Assay type: biochemical
In short: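 Full-length Avi-tagged MALT1 pre-incubated 30 min at room temperature with compounds (2% DMSO final) in HEPES pH 6.89, sodium citrate, TCEP, EDTA, CHAPS buffer. Ac-LRSR-AMC added from 50 µM (Km) or […] working stocks; 90 min at room temperature, AMC fluorescence (ex 342/em 441 nm); IC50 from % inhibition curves.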

SMILES | IC50 [µM]
O=C1c2c(C(F)(F)F)c(-c3ccccc3)nn2CCCN1c1ccnc(C(F)(F)F)c1 [Compound I-183, 2-phenyl-3-(trifluoromethyl)-5-(2-(trifluoromethyl)pyridin-4-yl)-5,6,7,8-tetrahydro-4H-pyrazolo[1,5-a][1,4]diazepin-4-one] | > 10
Cn1nc(-c2cccc3c(=O)[nH]cnc23)c(C(F)(F)F)c1C(=O)Nc1ccnc(C(F)(F)F)c1 [Compound I-187, 1-methyl-3-(4-oxo-3,4-dihydroquinazolin-8-yl)-4-(trifluoromethyl)-N-(2-(trifluoromethyl)pyridin-4-yl)-1H-pyrazole-5-carboxamide] | 2.5 to 10
O=C(Nc1cnc(-n2nccn2)c(Cl)c1)c1nn2c(c1C(F)(F)F)-c1ccccc1CC2 [Compound I-188, N-(5-chloro-6-(2H-1,2,3-triazol-2-yl)pyridin-3-yl)-1-(trifluoromethyl)-5,6-dihydropyrazolo[5,1-a]isoquinoline-2-carboxamide] | < 0.5
O=C(Nc1cnc(-n2nccn2)c(C(F)(F)F)c1)c1c(C(F)(F)F)c(-c2ccccc2)nn1C1CC1 [Compound I-190] | 0.5 to 2.5
O=C(Nc1cnc(-n2nccn2)c(Cl)c1)c1nn(C2CC2)c(-c2ccccc2)c1C(F)(F)F [Compound I-191] | 0.5 to 2.5
Cn1nc(-c2ccc(F)c(N)n2)c(C(F)(F)F)c1C(=O)Nc1ccnc(C(F)(F)F)c1 [Compound I-196, 3-(6-amino-5-fluoropyridin-2-yl)-1-methyl-4-(trifluoromethyl)-N-(2-(trifluoromethyl)pyridin-4-yl)-1H-pyrazole-5-carboxamide] | 0.5 to 2.5
Cn1nc(-c2cccc3c2CCNC3)c(C(F)(F)F)c1C(=O)Nc1ccnc(C(F)(F)F)c1 [Compound I-197] | > 10
COc1c(-c2nn(C)c(C(=O)Nc3ccnc(C(F)(F)F)c3)c2C(F)(F)F)ccnc1N [Compound I-199] | 2.5 to 10

The remaining lines, values ahead:

IC50 [µM] | SMILES
> 10 | O=C1c2c(C(F)(F)F)c(-c3ccccc3)nn2CCN1c1ccnc(C(F)(F)F)c1 [Compound I-184]
< 0.5 | CN(C)CCn1nc(-c2cccc3ccoc23)c(C(F)(F)F)c1C(=O)Nc1cnc(-n2nccn2)c(C#N)c1 [Compound I-186, 3-(benzofuran-7-yl)-N-(5-cyano-6-(2H-1,2,3-triazol-2-yl)pyridin-3-yl)-1-(2-(dimethylamino)ethyl)-4-(trifluoromethyl)-1H-pyrazole-5-carboxamide]
< 0.5 | O=C(Nc1cnc(-n2nccn2)c(Cl)c1)c1c(C(F)(F)F)c(-c2ccccc2)nn1C1CC1 [Compound I-189, N-(5-chloro-6-(2H-1,2,3-triazol-2-yl)pyridin-3-yl)-1-cyclopropyl-3-phenyl-4-(trifluoromethyl)-1H-pyrazole-5-carboxamide]
0.5 to 2.5 | O=C(Nc1ccnc(C(F)(F)F)c1)c1nn(C2CC2)c(-c2ccccc2)c1C(F)(F)F [Compound I-192]
0.5 to 2.5 | Cn1nc(C(=O)c2ccccc2)c(C(F)(F)F)c1C(=O)Nc1ccnc(C(F)(F)F)c1 [Compound I-193, 3-benzoyl-1-methyl-4-(trifluoromethyl)-N-(2-(trifluoromethyl)pyridin-4-yl)-1H-pyrazole-5-carboxamide]
2.5 to 10 | Cn1nc(-c2cnc(CO)c3ccccc23)c(C(F)(F)F)c1C(=O)Nc1ccnc(C(F)(F)F)c1 [Compound I-194, 3-(1-(hydroxymethyl)isoquinolin-4-yl)-1-methyl-4-(trifluoromethyl)-N-(2-(trifluoromethyl)pyridin-4-yl)-1H-pyrazole-5-carboxamide]
> 10 | Cn1nc(-c2cnc3ccccn23)c(C(F)(F)F)c1C(=O)Nc1ccnc(C(F)(F)F)c1 [Compound I-195, 3-(imidazo[1,2-a]pyridin-3-yl)-1-methyl-4-(trifluoromethyl)-N-(2-(trifluoromethyl)pyridin-4-yl)-1H-pyrazole-5-carboxamide]
< 0.5 | Cn1nc(-c2cc(N)ncc2Cl)c(C(F)(F)F)c1C(=O)Nc1ccnc(C(F)(F)F)c1 [Compound I-198]
> 10 | Cn1nc(C2CCNCC2)c(C(F)(F)F)c1C(=O)Nc1ccnc(C(F)(F)F)c1 [Compound I-200]
